Experimental data from PMC6005348, “Betahistine Treatment in a Cat Model of Vestibular Pathology: Pharmacokinetic and Pharmacodynamic Approaches” (Frontiers in Neurology, 2018).
Read-outs that look alike come from different tables or passages of the source.

Legend:
[1] = Plasma pharmacokinetics of betahistine and 2-PAA after oral dosing in UVN cats (LC-MS/MS, non-compartmental analysis); type: in vivo, cat; conditions: for AUC / Cmax / Tmax / half-life: male, plasma, po; for half-life: read-out: Betahistine t1/2 (converted)
Procedure: The experiments were performed on nine adult male UVN cats randomly allocated into three groups of cats. Three groups of three adult male cats received 0.2 mg/kg betahistine (N = 3: cats 1–3), 2 mg/kg betahistine (N = 3: cats 4–6), or 0.2 mg/kg betahistine plus 1 mg/kg selegiline (N = 3: cats 7–9). […] The samples were frozen at −80°C until analysis. Pharmacokinetic parameters of betahistine and its major metabolite 2-PAA were calculated by applying non-compartmental analysis.
Betahistine and its internal standard, betahistine-d3, were extracted by liquid/liquid extraction from plasma under alkaline conditions toward 1-butanol/isooctane, followed by a second liquid/liquid extraction step of acidic 1-butanol/isooctane toward water. Betahistine concentration in plasma was analyzed using a validated LC-MS/MS method. In brief, an API 4000 (Applied Biosystems) mass spectrometer coupled with a Symbiosis HPLC system (Sparks, Emmen, The Netherlands) was employed to analyze betahistine. Extracts (100 μl) were injected into a XTerra RP18 150 ^* 4.6 mm, 3.5 μm column (Waters, Etten-Leur, The Netherlands) and separated at 30°C under isocratic conditions using an aqueous metanol solution containing 0.5 mM ammonium formate as mobile phase. Betahistine was quantified by a tandem mass spectrometer in positive MRM. Parent daughter transition was followed for betahistine (m/z 137 > 94). Betahistine-d3 dihydrochloride was used as internal standard. Pharmacokinetic parameters of betahistine were calculated by applying non-compartmental analysis using the validated PK software WinNonLin, version 5.23 (Pharsight Corporation, Mountain View, CA, USA).
Cmax and tmax were derived directly from the plasma concentration-time curves. Linear trapezoidal rule was used to calculate AUC0-t during the part of the curve with increasing plasma concentrations. For the descending part of the curve, the log-linear trapezoidal rule was used. Calculation of the elimination half-life (t1/2) was evaluated as ln 2/kel, with kel as the slope of the terminal phase of the plasma concentration-time curve.

[2] = tested on: histidine decarboxylase (HDC); experiment: Number of HDC immunoreactive neurons in the tuberomammillary nuclei (immunohistochemistry); type: in vivo, cat
Procedure: […] animals were used for the immunohistochemical study to label the histamine synthesizing enzyme: the HDC. This study was performed on the same four groups of cats used for the behavioral investigation (cats 10–22). These lesioned animals (left UVN) were all killed 40 days after vestibular lesion. A supplementary group of intact animals (n = 4: cats 23–26) was used as a negative control group without vestibular lesion.
Cats were deeply anesthetized with ketamine dihydrochloride (20 mg/kg, i.m., Rhône Poulenc Mérieux) and perfused under isoflurane intubation (2%), through the ascending aorta, with 1 L of normal saline solution (0.9%) containing 0.1% heparine, and thereafter with 2 L of ice-cold 0.1 M phosphate buffer (PB, pH 7.4) including 4% paraformaldehyde and 0.2% picric acid.
After removal from the skull, the brain was cut into several blocks and post-fixed overnight at 4°C in the same solution. The blocks were then rinsed and cryoprotected by increasing concentrations (10, 20, and 30%) of sucrose solution in 0.1 M PB for 72 h at 4°C. Blocks containing the TMN were rapidly frozen with CO2 gas, and coronal sections 20 μm thick were cut in a cryostat (Leica, Rueil-Malmaison, France).
Free-floating sections were first incubated three times for 5 min in PBS (phosphate buffer saline 0.1 M), then for 1 h in 10% BSA, and 0.25% Triton X-100. Thereafter, sections were incubated under continuous agitation 24 h at 4°C with a Guinea pig polyclonal anti-HDC antiserum (1:1,000 in PBS containing 2% BSA and 0.25% Triton; Fisher scientific). After several rinses (3 × 5 min in PBS with 2% BSA and 3 × 5 min in PBS with 5% BSA) sections were incubated for 1 h, respectively, in biotinylated rabbit anti-guinea pig IgG (1:200 in PBS containing 2% BSA; from Vector Laboratories, Burlingame, CA). […]
The tuberomammillary nuclei (TMN) of the posterior hypothalamus, the sole structure in the brain containing histaminergic neurons, were identified using Berman's stereotaxic atlas ([38]). […] Serial sections in the TMN of each animal were analyzed, five sections at each of the five rostrocaudal levels examined (A12, A11, A10.2, A9.5, and A8.3) being quantified. The number of HDC immunoreactive neurons was quantified by means of a computer-assisted image analysis (DMLB microscope: Leica Microsystems, Wetzlar, Germany) equipped with a DXM 1200 Nikon high-resolution digital camera (1,024 × 1,024 pixels; Nikon, Tokyo, Japan) interfaced to a PC computer employing image software for capturing and processing the images (Lucia G, Nikon, Champigny-sur-Marne, France). Quantification of the immunolabeled neurons was performed via a gray-level method by adjusting a threshold brightness value, and only cells labeled with a gray value above this threshold were taken into account. Reproducibility was assessed by comparing the same data analyzed independently by two researchers blind to the animals' groups. The specific immunolabeling was quantified in each section as the number of labeled neurons, and was automatically computed and evaluated thereafter as the mean (± SEM) for each side, each cat, and each subgroup of cats. To eliminate quantification problems due to potentially asymmetric slides, data were collected from symmetrical slides only, and symmetry was assessed on the basis of the number of cells stained with cresyl violet on each side. […]

[3] = tested on: monoamine oxidase a/b; conditions: background statement, no reference given; cited from earlier work
[4] = cats, abstract statement, up to
[5] = 0.2 mg/kg, UVN cats, oral betahistine 0.2 mg/kg alone, day 1
[6] = 2 mg/kg, UVN cats, oral betahistine 2 mg/kg alone, day 1
[7] = 2 mg/kg, UVN cats, oral betahistine 2 mg/kg alone, day 21
[8] = UVN cats, oral betahistine 0.2 mg/kg plus selegiline 1 mg/kg, day 1
[9] = UVN cats, oral betahistine 0.2 mg/kg plus selegiline 1 mg/kg, day 21
[10] = UVN D40, betahistine 2 mg/kg, p < 0.0001

- Cmax- and AUC-values in cats compared to human ([1]; cats higher than human): 40–50 times
- Increase of betahistine AUC by co administration of selegiline [1, 4]: ≤ 180 fold
- Increase of betahistine Cmax by co administration of selegiline [1, 4]: up to 146 fold
- AUC ([1]; 0.2 mg/kg, PK/PD table, DAY 2, BH 0.2 mg/kg, read-out: AUC (betahistine)): 3.65 ng·h/mL
- Cmax ([1]; 0.2 mg/kg, PK/PD table, DAY 2, BH 0.2 mg/kg, read-out: Cmax (betahistine)): 4.11 ng/mL
- Tmax [1, 5]: 0.25 h
- AUC ([1]; 0.2 mg/kg, UVN cats, oral betahistine 0.2 mg/kg alone, day 1, read-out: Betahistine AUC): 3.7 ± 2.1 ng·h/mL
- Cmax ([1]; 0.2 mg/kg, UVN cats, oral betahistine 0.2 mg/kg alone, day 1, read-out: Betahistine Cmax): 4.1 ± 2.9 ng/mL
- half-life [1, 5]: 1.9 ± 0.7 h
- Tmax ([1]; 0.2 mg/kg, UVN cats, oral betahistine 0.2 mg/kg alone, day 21): 2 h
- half-life ([1]; 0.2 mg/kg, UVN cats, oral betahistine 0.2 mg/kg alone, day 21, n = 2): 4 h
- AUC ([1]; 0.2 mg/kg, UVN cats, oral betahistine 0.2 mg/kg alone, day 21, read-out: Betahistine AUC): 1.5 ± 0.6 ng·h/mL
- Cmax ([1]; 0.2 mg/kg, UVN cats, oral betahistine 0.2 mg/kg alone, day 21, read-out: Betahistine Cmax): 0.6 ± 0.4 ng/mL
- AUC ([1]; 2 mg/kg, PK/PD table, DAY 2, BH 2.0 mg/kg, read-out: AUC (betahistine)): 26.7 ng·h/mL
- Cmax ([1]; 2 mg/kg, PK/PD table, DAY 2, BH 2.0 mg/kg, read-out: Cmax (betahistine)): 54 ng/mL
- Tmax [1, 6]: 0.25 h
- AUC ([1]; 2 mg/kg, UVN cats, oral betahistine 2 mg/kg alone, day 1, read-out: Betahistine AUC): 19.7 ± 5 ng·h/mL
- Cmax ([1]; 2 mg/kg, UVN cats, oral betahistine 2 mg/kg alone, day 1, read-out: Betahistine Cmax): 23.8 ± 11.2 ng/mL
- half-life [1, 6]: 3 ± 2.6 h
- Tmax [1, 7]: 0.5 h
- AUC ([1]; 2 mg/kg, UVN cats, oral betahistine 2 mg/kg alone, day 21, read-out: Betahistine AUC): 51 ± 42.4 ng·h/mL
- Cmax ([1]; 2 mg/kg, UVN cats, oral betahistine 2 mg/kg alone, day 21, read-out: Betahistine Cmax): 38.9 ± 34.9 ng/mL
- half-life [1, 7]: 1.6 ± 0.3 h
- AUC ([1]; PK/PD table, DAY 2, BH 0.2 mg/kg + Selegiline 1 mg/kg, read-out: AUC (betahistine)): 19.7 ng·h/mL
- Cmax ([1]; PK/PD table, DAY 2, BH 0.2 mg/kg + Selegiline 1 mg/kg, read-out: Cmax (betahistine)): 23.8 ng/mL
- Tmax [1, 8]: 0.25 h
- AUC ([1]; UVN cats, oral betahistine 0.2 mg/kg plus selegiline 1 mg/kg, day 1, read-out: Betahistine AUC): 26.7 ± 24.1 ng·h/mL
- half-life [1, 8]: 2.5 ± 0.5 h
- Tmax [1, 9]: 1 h
- AUC ([1]; UVN cats, oral betahistine 0.2 mg/kg plus selegiline 1 mg/kg, day 21, read-out: Betahistine AUC): 6.7 ± 5.1 ng·h/mL
- Cmax ([1]; UVN cats, oral betahistine 0.2 mg/kg plus selegiline 1 mg/kg, day 21, read-out: Betahistine Cmax): 13.2 ± 13 ng/mL
- half-life [1, 9]: 1.9 ± 0.4 h
- Betahistine Cmax with versus without selegiline co-administration ([1]; repeated administration, day 21): 65 fold
- Increase of betahistine AUC0−7h by selegiline 1 mg/kg ([1]; single administration, day 1): ~ 5 fold
- Increase of betahistine Cmax by selegiline 1 mg/kg ([1]; single administration, day 1): ~ 5 fold
SMILES: CNCCc1ccccn1 [Betahistine, betahistine]
- Number of HDC immunoreactive neurons, ipsilateral TMN ([2]; UVN D40, betahistine 0.2 mg/kg without selegiline, UVN untreated 151.78 ± 3.29): 151.3 ± 1.51
- Number of HDC immunoreactive neurons, contralateral TMN ([2]; UVN D40, betahistine 0.2 mg/kg without selegiline, UVN untreated 152.4 ± 3.63): 151.1 ± 1.63
- Number of HDC immunoreactive neurons, contralateral TMN [2, 10]: 191.68 ± 2.04
- Number of HDC immunoreactive neurons, ipsilateral TMN [2, 10]: 190.85 ± 1.58
- Number of HDC immunopositive neurons on both sides, on average ([2]; lesion and betahistine 2 mg/kg, 40 days post-lesion, compared to UVN untreated cats as worded): 210%
- Share of the drug fastly metabolized by the monoamine oxidase a/b [3]: 95%
